Tests used:
[1] = Antiviral activity against Human Immunodeficiency Virus by Reverse transcriptase assay in CEM-SS cells
[2] = Antiviral activity against Human Immunodeficiency Virus by Reverse transcriptase assay in CEM-SS
[3] = Antiviral activity against Human Immunodeficiency Virus by Reverse transcriptase assay in CEM-SS cells; remark: listed apart in the source
[4] = Antiviral activity against Human Immunodeficiency Virus by Reverse transcriptase (RT) assay in CEM-SS cells.
[5] = Antiviral activity against Human Immunodeficiency Virus by Reverse transcriptase assay CEM-SS cells

Row | IC50 [1] | Compound | also measured
1 | > 100 µM | FC(F)(F)c1cc(Cn2c(Br)nc3cc(Cl)c(Cl)cc32)cc(C(F)(F)F)c1 [1-(3,5-Bis-trifluoromethyl-benzyl)-2-bromo-5,6-dichloro-1H-benzoimidazole] | –
2 | 0.0031 µM | Cc1cn([C@H]2C[C@H](N=[N+]=[N-])[C@@H](CO)O2)c(=O)[nH]c1=O [1-((2R,4S,5S)-4-Azido-5-hydroxymethyl-tetrahydro-furan-2-yl)-5-methyl-1H-pyrimidine-2,4-dione] | –
3 | – | Cc1ccc(Cn2c(Cl)nc3cc(Cl)c(Cl)cc32)cc1 [2,5,6-Trichloro-1-(4-methyl-benzyl)-1H-benzoimidazole] | IC50 [2]: > 100 µM
4 | – | O=[N+]([O-])c1ccc(Cn2c(Cl)nc3cc(Cl)c(Cl)cc32)cc1 [2,5,6-Trichloro-1-(4-nitro-benzyl)-1H-benzoimidazole] | IC50 [3]: > 100 µM
5 | > 100 µM | Clc1ccc(Cn2c(Br)nc3cc(Cl)c(Cl)cc32)cc1Cl [2-Bromo-5,6-dichloro-1-(3,4-dichloro-benzyl)-1H-benzoimidazole] | –
6 | 66 µM | Cc1cccc(Cn2c(Br)nc3cc(Cl)c(Cl)cc32)c1 [2-Bromo-5,6-dichloro-1-(3-methyl-benzyl)-1H-benzoimidazole] | –
7 | – | O=[N+]([O-])c1cccc(Cn2c(Br)nc3cc(Cl)c(Cl)cc32)c1 [2-Bromo-5,6-dichloro-1-(3-nitro-benzyl)-1H-benzoimidazole] | IC50 [4]: > 32 µM
8 | – | COc1ccc(Cn2c(Br)nc3cc(Cl)c(Cl)cc32)cc1 [2-Bromo-5,6-dichloro-1-(4-methoxy-benzyl)-1H-benzoimidazole] | IC50 [5]: > 100 µM

— BindingDB's records for doi:10.1021/jm970559i (University of Michigan, 1998)
